Assay results published in PMC6407917, “Identification of GSK3186899/DDD853651 as a Preclinical Development Candidate for the Treatment of Visceral Leishmaniasis” (Journal of Medicinal Chemistry, 2018).

What was measured:
Assay in all cases: biochemical
Design in all cases: species or system HEK293/K-562/placenta mixed human extract; Kinobeads chemoproteomic competition binding, quantified by TMT LC-MS/MS, dose response up to 20 uM
NEK1 = NEK1 (Homo sapiens, UniProt Q96PY6)
CDK9 = CDK9 (Homo sapiens, UniProt P50750)
TAOK2 = TAOK2 (Homo sapiens, UniProt Q9UL54)
PLK1 = PLK1 (Homo sapiens, UniProt P53350)
CDC42BPG = CDC42BPG (Homo sapiens, UniProt Q6DT37)
CHEK2 = CHEK2 (Homo sapiens, UniProt O96017)
CSNK1A1 = CSNK1A1 (Homo sapiens, UniProt P48729)
MAPK14 = MAPK14 (Homo sapiens, UniProt Q16539)
RPS6KA2 = RPS6KA2 (Homo sapiens, UniProt Q15349)
ERBB4 = ERBB4 (Homo sapiens, UniProt Q15303)
PRKCZ = PRKCZ (Homo sapiens, UniProt Q05513)
MASTL = MASTL (Homo sapiens, UniProt Q96GX5)
KDR = KDR (Homo sapiens, UniProt P35968)
CAMKK1 = CAMKK1 (Homo sapiens, UniProt Q8N5S9)
TNIK = TNIK (Homo sapiens, UniProt Q9UKE5)
MAP2K3 = MAP2K3 (Homo sapiens, UniProt P46734)
MARK2 = MARK2 (Homo sapiens, UniProt Q7KZI7)
PDPK1 = PDPK1 (Homo sapiens, UniProt O15530)
CDKL5 = CDKL5 (Homo sapiens, UniProt O76039)
SIK2 = SIK2 (Homo sapiens, UniProt Q9H0K1)
EPHB1 = EPHB1 (Homo sapiens, UniProt P54762)

Chain of TNIK (Q9UKE5 whole entry): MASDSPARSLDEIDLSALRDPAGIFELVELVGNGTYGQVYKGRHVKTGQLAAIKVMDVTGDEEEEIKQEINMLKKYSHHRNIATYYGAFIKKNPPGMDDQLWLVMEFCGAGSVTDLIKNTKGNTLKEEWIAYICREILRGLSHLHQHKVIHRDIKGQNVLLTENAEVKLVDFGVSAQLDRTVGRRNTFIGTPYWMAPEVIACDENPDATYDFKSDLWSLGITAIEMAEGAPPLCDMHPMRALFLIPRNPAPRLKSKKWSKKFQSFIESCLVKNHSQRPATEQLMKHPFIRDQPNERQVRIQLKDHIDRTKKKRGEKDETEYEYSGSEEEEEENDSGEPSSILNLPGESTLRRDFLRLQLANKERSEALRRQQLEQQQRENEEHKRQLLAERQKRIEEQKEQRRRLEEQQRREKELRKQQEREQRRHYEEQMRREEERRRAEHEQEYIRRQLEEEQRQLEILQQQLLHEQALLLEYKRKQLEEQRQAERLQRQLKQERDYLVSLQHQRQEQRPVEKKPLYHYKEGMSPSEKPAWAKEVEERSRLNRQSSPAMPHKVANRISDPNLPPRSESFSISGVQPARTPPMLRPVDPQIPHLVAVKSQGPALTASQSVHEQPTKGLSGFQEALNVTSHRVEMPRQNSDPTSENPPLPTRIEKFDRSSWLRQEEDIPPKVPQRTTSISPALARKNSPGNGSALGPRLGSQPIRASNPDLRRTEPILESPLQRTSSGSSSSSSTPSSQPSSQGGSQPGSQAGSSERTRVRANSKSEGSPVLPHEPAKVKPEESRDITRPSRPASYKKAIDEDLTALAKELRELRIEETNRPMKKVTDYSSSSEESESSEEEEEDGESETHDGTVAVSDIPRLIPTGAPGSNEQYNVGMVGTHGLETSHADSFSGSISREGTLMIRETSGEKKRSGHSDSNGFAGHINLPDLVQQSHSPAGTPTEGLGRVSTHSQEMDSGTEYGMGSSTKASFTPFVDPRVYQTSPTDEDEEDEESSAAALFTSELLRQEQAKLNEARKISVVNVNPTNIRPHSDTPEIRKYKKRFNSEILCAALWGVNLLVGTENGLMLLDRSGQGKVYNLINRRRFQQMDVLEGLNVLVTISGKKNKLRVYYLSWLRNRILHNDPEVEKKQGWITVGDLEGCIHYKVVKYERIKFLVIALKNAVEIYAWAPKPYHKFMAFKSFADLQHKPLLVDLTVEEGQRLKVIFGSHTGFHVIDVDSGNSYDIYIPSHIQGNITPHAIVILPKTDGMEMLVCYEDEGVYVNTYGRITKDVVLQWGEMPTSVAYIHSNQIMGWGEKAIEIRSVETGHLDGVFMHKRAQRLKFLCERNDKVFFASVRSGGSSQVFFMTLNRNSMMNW
Chain of NEK1 (Q96PY6 whole entry): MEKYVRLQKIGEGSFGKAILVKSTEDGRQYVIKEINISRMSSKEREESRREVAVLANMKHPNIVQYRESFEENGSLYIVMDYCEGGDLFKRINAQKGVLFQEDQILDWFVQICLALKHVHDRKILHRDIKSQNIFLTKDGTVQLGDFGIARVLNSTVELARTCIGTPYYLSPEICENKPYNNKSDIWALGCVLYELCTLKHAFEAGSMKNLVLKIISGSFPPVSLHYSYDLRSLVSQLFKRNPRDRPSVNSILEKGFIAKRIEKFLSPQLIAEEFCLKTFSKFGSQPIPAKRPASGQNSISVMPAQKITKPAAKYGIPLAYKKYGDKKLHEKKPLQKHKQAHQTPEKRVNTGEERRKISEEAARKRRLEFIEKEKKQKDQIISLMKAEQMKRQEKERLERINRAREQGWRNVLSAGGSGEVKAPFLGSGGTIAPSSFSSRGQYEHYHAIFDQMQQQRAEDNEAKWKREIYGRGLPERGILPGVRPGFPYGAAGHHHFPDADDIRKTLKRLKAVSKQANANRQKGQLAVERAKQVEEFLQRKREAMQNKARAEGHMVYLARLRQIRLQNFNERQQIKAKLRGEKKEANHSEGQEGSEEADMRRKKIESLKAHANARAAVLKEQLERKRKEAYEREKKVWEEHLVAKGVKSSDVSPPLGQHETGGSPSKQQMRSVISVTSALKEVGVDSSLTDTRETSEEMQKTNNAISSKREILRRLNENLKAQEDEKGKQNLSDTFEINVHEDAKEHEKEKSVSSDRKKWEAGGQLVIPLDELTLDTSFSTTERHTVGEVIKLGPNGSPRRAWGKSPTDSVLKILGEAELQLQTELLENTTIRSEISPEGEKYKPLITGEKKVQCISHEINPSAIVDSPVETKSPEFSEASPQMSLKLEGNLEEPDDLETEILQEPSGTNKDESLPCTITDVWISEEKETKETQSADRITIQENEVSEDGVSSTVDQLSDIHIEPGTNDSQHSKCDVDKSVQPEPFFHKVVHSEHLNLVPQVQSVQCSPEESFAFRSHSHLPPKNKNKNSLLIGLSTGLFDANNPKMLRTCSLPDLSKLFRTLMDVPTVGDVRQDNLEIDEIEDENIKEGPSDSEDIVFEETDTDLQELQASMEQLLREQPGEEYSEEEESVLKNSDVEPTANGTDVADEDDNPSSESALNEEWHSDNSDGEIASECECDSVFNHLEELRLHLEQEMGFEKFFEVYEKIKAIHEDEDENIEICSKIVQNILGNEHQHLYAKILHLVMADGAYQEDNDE
Chain of MARK2 (Q7KZI7 whole entry): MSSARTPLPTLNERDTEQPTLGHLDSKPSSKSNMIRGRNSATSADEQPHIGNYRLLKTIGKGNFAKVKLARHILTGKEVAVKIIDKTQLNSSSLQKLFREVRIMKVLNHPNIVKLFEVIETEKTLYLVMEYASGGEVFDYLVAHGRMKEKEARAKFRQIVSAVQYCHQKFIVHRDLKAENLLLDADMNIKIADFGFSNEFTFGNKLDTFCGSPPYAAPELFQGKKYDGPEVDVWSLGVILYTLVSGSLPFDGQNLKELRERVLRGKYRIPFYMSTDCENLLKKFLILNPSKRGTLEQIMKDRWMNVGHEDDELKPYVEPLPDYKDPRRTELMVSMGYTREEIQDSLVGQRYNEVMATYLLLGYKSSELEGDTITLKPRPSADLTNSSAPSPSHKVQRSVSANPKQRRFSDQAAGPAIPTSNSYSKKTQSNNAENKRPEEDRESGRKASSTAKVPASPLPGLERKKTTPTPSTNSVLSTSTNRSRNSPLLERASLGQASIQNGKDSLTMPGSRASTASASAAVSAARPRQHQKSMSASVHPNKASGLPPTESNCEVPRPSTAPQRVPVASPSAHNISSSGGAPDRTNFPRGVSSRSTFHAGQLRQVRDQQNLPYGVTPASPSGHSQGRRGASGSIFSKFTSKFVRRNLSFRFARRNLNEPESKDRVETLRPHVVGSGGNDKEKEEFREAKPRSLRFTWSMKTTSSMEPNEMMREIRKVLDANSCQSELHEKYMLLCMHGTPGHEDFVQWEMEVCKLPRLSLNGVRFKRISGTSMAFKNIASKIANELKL
Chain of RPS6KA2 (Q15349 whole entry): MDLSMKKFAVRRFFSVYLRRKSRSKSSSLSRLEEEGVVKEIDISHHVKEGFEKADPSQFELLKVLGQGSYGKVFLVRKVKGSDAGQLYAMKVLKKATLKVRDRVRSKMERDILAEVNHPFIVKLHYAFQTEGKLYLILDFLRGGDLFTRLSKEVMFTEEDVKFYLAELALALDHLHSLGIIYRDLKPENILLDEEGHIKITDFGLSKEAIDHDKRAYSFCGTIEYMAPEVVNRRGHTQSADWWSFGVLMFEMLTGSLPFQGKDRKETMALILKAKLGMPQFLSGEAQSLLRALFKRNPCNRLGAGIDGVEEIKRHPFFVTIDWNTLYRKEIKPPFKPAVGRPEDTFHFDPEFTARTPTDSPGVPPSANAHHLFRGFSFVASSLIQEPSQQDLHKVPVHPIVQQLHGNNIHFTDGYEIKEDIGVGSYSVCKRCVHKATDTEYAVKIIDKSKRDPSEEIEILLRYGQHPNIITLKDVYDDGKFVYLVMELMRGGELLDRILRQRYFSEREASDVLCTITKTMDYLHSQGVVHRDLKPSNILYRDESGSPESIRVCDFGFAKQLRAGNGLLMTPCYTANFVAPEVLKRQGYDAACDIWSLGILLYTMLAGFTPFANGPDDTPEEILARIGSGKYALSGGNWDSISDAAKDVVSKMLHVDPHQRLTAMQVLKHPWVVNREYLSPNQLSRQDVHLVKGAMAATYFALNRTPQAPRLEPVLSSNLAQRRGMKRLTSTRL
Chain of MAPK14 (Q16539 whole entry): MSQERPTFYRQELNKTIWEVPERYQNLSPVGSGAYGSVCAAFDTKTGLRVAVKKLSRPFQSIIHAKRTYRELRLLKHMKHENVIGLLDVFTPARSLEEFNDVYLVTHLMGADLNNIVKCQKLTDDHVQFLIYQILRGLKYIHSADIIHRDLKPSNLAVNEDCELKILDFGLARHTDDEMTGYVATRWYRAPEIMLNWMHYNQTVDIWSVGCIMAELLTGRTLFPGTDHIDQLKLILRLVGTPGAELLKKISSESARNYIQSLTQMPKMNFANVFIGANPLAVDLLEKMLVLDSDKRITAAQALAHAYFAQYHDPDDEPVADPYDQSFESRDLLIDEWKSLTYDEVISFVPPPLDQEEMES
Chain of CHEK2 (O96017 whole entry): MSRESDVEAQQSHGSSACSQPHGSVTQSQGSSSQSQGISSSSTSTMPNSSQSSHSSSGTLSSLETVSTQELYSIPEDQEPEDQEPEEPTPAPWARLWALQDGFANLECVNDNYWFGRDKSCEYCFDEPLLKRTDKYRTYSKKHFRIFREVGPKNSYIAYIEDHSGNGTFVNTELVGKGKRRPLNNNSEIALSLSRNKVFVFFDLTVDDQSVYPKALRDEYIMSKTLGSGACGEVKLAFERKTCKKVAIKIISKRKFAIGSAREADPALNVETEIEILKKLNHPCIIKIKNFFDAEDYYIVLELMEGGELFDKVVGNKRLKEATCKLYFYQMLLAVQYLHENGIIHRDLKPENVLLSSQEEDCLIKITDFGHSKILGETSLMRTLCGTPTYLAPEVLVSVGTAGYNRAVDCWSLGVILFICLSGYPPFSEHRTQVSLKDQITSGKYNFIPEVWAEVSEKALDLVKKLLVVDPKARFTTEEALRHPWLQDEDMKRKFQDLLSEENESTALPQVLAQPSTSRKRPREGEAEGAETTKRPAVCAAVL

IC50 (NEK1): ≥ 20 µM
IC50 (CDK9): 3.6 µM
IC50 (TAOK2): 5.2 µM
IC50 (PLK1): ≥ 20 µM
IC50 (CDC42BPG): ≥ 20 µM
IC50 (CHEK2): ≥ 20 µM
IC50 (CSNK1A1): ≥ 20 µM
IC50 (MAPK14): ≥ 20 µM
IC50 (RPS6KA2): ≥ 20 µM
IC50 (ERBB4): ≥ 20 µM
IC50 (PRKCZ): ≥ 20 µM
IC50 (MASTL): ≥ 20 µM
IC50 (KDR): ≥ 20 µM
IC50 (CAMKK1): ≥ 20 µM
IC50 (TNIK): ≥ 20 µM
IC50 (MAP2K3): ≥ 20 µM
IC50 (MARK2): ≥ 20 µM
IC50 (PDPK1): ≥ 20 µM
IC50 (CDKL5): ≥ 20 µM
IC50 (SIK2): ≥ 20 µM
IC50 (EPHB1): ≥ 20 µM
SMILES: COc1ccccc1-c1n[nH]c2nc(N[C@H]3CC[C@H](NS(=O)(=O)CCC(F)(F)F)CC3)nc(OC)c12 [compound 31, 3,3,3-Trifluoro-N-(trans-4-((4-methoxy-3-(2-methoxyphenyl)-1H-pyrazolo[3,4-d]pyrimidin-6-yl)amino)cyclohexyl)propane-1-sulfonamide]
